Article PMC10708113, “Comparative Study of Essential Oils from Different Organs of Syzygium cumini (Pamposia) Based on GC/MS Chemical Profiling and In Vitro Antiaging Activity” (Molecules, 2023)
Converted amounts (≈) assume the structure as drawn.

Target: T1, collagenase
T1 construct: gene colG
Assay: fluorometric collagenase inhibitor screening kit
Format: biochemical
Details: 15 min preincubation at 25 °C; kinetic read 60 min at 37 °C; ex 490 / em 520 nm

Cc1cnc(NC(=O)C2=C(O)c3ccccc3S(=O)(=O)N2C)s1 [Meloxicam]
IC50: 38.48 µg/mL (≈ 110 µM)
